Test results taken from patent US20260240888A1, “METHODS AND PHARMACEUTICAL COMPOSITIONS FOR TREATING AGE-RELATED DISEASES” (Neurxstem, priority 2023, published 2026).
Counter-ions that a name gives are not always drawn.

Assays:
[1] = cited from earlier work
[2] = test system: AD-NNOP-ApoE neural organoids; assay: Gene expression (Ampliseq transcriptomics) in AD-NNOP-ApoE neural organoids treated with CGS-21680; type: cell-based, human
Source text: Reads in counts per minute (cpm)<1 are considered background noise. All cpm data are normalized data and the reads are a direct representation of the abundance of the RNA for each gene.
Expression of differentially expressed genes in PG-NNOP neural organoids compared to Normal-NNOP in culture for 12 weeks.

PG-NNOP neural organoids = assay: Gene expression (Ampliseq transcriptomics) in PG-NNOP neural organoids treated with drug; type: cell-based, human
Source text: Furthermore, in one embodiment RNA from neural organoids for Alzheimer's disease, are converted to DNA libraries and then the representative DNA libraries are sequenced using exon-specific primers for 20,814 genes using the AmpliSeq™ technique available commercially from ThermoFisher. Reads in counts per […] (cpm)<1 are considered background noise. All cpm data are normalized data and the reads are a direct representation of the abundance of the RNA for each gene. In another informative embodiment, RNA from neural organoids for Progeroid syndromes were converted to DNA libraries and then sequenced according to this protocol.
Neural Organoids derived from induced pluripotent stem cells derived from adult skin cells of AD, ADRD, MED, or Hutchinson Gilford progeria (PG) patients were grown in vitro for […] as previous described in U.S. Pat. No. 11,435,890, incorporated by reference in its entirety herein. Transcriptomic data from these neural organoids were obtained. Differences in expression of 20,814 genes expressed in the human genome were determined between these neural organoids and those from neural organoids from a normal individual human (an individual not having/diagnosed with AD, ADRD, MED, or Progeroid syndromes). Detailed data analysis using Gene Card and Pubmed data bases were performed. […] These genes comprise a suite of biomarkers for Alzheimer's disease.
Thus, given the overlap in transcriptomic profile of AD and PG, experiments were set out to test the effect of targeting this receptor on PG-NNOP. FAAH inhibitor PF-3845, which is known to raise endogenous levels of endocannabinoid anandamide receptor agonist anandamide and increase endocannabinoid anandamide receptor activity, was tested for effects on gene expression dysregulation in PG-NNOP platform cells as set forth herein (Table 7). […] As the log 2 fold numbers reveal, the direction of the change in gene expression was completely reversed in some biomarkers by PF-3845, or the change was reduced by PF-3845. Thus, PF-3845 was capable of reverting the biomarkers of PG to normalcy.
Expression of differentially expressed genes in PG-NNOP neural organoids compared to Normal-NNOP in culture for 12 weeks is shown, as well as expression of differentially expressed genes in PG-NNOP neural organoids with PF-3845 treatment compared to PG-NNOP without drug treatment in culture for 12 weeks. […] PG-NNOP neural organoids were incubated with vehicle (0.1% DMSO; control) or PF-3845 dissolved in DMSO at 10microM for 4 days and harvested for RNA extraction and gene expression analysis by Ampliseq™ (Thermofisher). Log 2 fold change with a positive value indicates a decrease in expression of a PG-NNOP gene when compared to Normal-NNOP or a PG-NNOP gene with FAAH-I compared to PG-NNOP without the drug treatment, and with a negative number indicates an increase in gene expression.
Expression of differentially expressed genes in PG-NNOP neural organoids compared to Normal-NNOP in culture for 12 weeks and expression of differentially expressed genes in PG-NNOP neural organoids with metformin treatment compared to PG-NNOP without drug treatment in culture for 12 weeks is shown. […] PG-NNOP neural organoids were incubated with vehicle (HBBS; control) or metformin dissolved in HBBS at 0.28 mg/ml for 4 days and harvested for RNA extraction and gene expression analysis by Ampliseq™ (Thermofisher). Log 2 fold change with a positive value indicates a decrease in expression of a PG-NNOP gene when compared to Normal-NNOP or a PG-NNOP gene with Metformin compared to PG-NNOP without the drug treatment, and with a negative number indicates an increase in gene expression.
Expression of differentially expressed genes in PG-NNOP neural organoids compared to Normal-NNOP in culture for 12 weeks and expression of differentially expressed genes in PG-NNOP neural organoids with rapamycin treatment compared to PG-NNOP without drug treatment in culture for 12 weeks is shown. […]

[3] = cited from earlier work; remark: listed apart in the source
[4] = 0.28 mg/ml, 4 days, vs PG-NNOP without drug, positive = decrease in expression
[5] = 10microM, 4 days, vs PG-NNOP without drug, positive = decrease in expression
[6] = 50 nM, 4 days, vs PG-NNOP without drug, positive = decrease in expression

Compound: CCNC(=O)[C@H]1O[C@@H](n2cnc3c(N)nc(C#CC[C@H]4CC[C@H](C(=O)OC)CC4)nc32)[C@H](O)[C@@H]1O [Apadenoson, methyl (1R,4r)-4-(3-(6-amino-9-((2R,3R,4S,5S)-5-(ethylcarbamoyl)-3,4-dihydroxytetrahydrofuran-2-yl)-9H-purin-2-yl)prop-2-yn-1-yl)cyclohexane-1-carboxylate]
- solubility in DMSO ([1]; DMSO): Soluble in DMSO

Compound: CCNC(=O)[C@H]1O[C@@H](n2cnc3c(N)nc(NCCc4ccc(CCC(=O)O)cc4)nc32)[C@H](O)[C@@H]1O [CGS-21680, 2-p-(2-Carboxyethyl) phenethylamino-5′-N-ethylcarboxamidoadenosine hydrochloride hydrate]
- soluble in 45% (w/v) aq 2-hydroxypropyl-β-cyclodextrin ([1]; 45% (w/v) aq 2-hydroxypropyl-β-cyclodextrin): ≤ 20 mg/mL
- soluble in DMSO ([1]; DMSO): up to 3.4 mg/mL
- effect on dysregulation of SLC7A5 and MT2A [2]: the dysregulation was corrected
- effect on gene expression dysregulated in both AD-ApoE-NNOP and PG-NNOP ([2]; 1 micromolar): significantly altered gene expression
- effect on changes in expression of SELENBP1 and RARB in AD-ApoE-NNOP ([2]; direction towards normalcy): reduced the changes in expression of both genes

Compound: CN(C)C(=N)NC(=N)N [Metformin]
- effect on dysregulated gene expression in PG-NNOP (PG-NNOP neural organoids): shifted the gene expression towards normalcy
- Log2 Fold Change of CDK1 gene expression (PG-NNOP neural organoids; [4]): 0.52
- Log2 Fold Change of CDKN1A gene expression (PG-NNOP neural organoids; [4]): −0.35
- Log2 Fold Change of DNAJC1 gene expression (PG-NNOP neural organoids; [4]): −0.26
- Log2 Fold Change of ID2 gene expression (PG-NNOP neural organoids; [4]): 0.86
- Log2 Fold Change of LMNB2 gene expression (PG-NNOP neural organoids; [4]): −0.42
- Log2 Fold Change of MT2A gene expression (PG-NNOP neural organoids; [4]): 2.06
- Log2 Fold Change of POGZ gene expression (PG-NNOP neural organoids; [4]): 0.36
- Log2 Fold Change of POLE3 gene expression (PG-NNOP neural organoids; [4]): −0.25
- Log2 Fold Change of SLC35F1 gene expression (PG-NNOP neural organoids; [4]): −0.47
- Log2 Fold Change of USP31 gene expression (PG-NNOP neural organoids; [4]): 0.67
- Log2 Fold Change of VCP gene expression (PG-NNOP neural organoids; [4]): 0.33
- Log2 Fold Change of WRN gene expression (PG-NNOP neural organoids; [4]): 0.71

Compound: O=C(Nc1cccnc1)N1CCC(Cc2cccc(Oc3ccc(C(F)(F)F)cn3)c2)CC1 [PF-3845, N-3-Pyridinyl-4-[[3-[[5-(trifluoromethyl)-2-pyridinyl]oxy]phenyl]methyl]-1-piperidinecarboxamide]
- effect on dysregulated gene expression in PG-NNOP (PG-NNOP neural organoids): effective in correcting the gene expression that was altered in PG-NNOP
- Log2 Fold Change of CDKN1A gene expression (PG-NNOP neural organoids; [5]): 0.77
- Log2 Fold Change of EZH2 gene expression (PG-NNOP neural organoids; [5]): −0.5
- Log2 Fold Change of ID2 gene expression (PG-NNOP neural organoids; [5]): 0.35
- Log2 Fold Change of IDI1 gene expression (PG-NNOP neural organoids; [5]): 1.15
- Log2 Fold Change of LMNB2 gene expression (PG-NNOP neural organoids; [5]): −0.67
- Log2 Fold Change of MT2A gene expression (PG-NNOP neural organoids; [5]): 2.77
- Log2 Fold Change of SLC35F1 gene expression (PG-NNOP neural organoids; [5]): −0.65
- Log2 Fold Change of SLC38A1 gene expression (PG-NNOP neural organoids; [5]): −0.57
- Log2 Fold Change of USP31 gene expression (PG-NNOP neural organoids; [5]): 0.62

Compound: CO[C@H]1C[C@@H]2CC[C@@H](C)[C@@](O)(O2)C(=O)C(=O)N2CCCC[C@H]2C(=O)O[C@H]([C@H](C)C[C@@H]2CC[C@@H](O)[C@H](OC)C2)CC(=O)[C@H](C)/C=C(\C)[C@@H](O)[C@@H](OC)C(=O)[C@H](C)C[C@H](C)/C=C/C=C/C=C/1C [Rapamycin]
- effect on dysregulated gene expression in PG-NNOP (PG-NNOP neural organoids): shifted the gene expression towards normalcy
- Log2 Fold Change of CDKN1A gene expression (PG-NNOP neural organoids; [6]): 1.21
- Log2 Fold Change of IDI1 gene expression (PG-NNOP neural organoids; [6]): 1.48
- Log2 Fold Change of LMNB2 gene expression (PG-NNOP neural organoids; [6]): −0.96
- Log2 Fold Change of MT2A gene expression (PG-NNOP neural organoids; [6]): 3.23
- Log2 Fold Change of POLE3 gene expression (PG-NNOP neural organoids; [6]): 0.75
- Log2 Fold Change of SLC35F1 gene expression (PG-NNOP neural organoids; [6]): −0.83
- Log2 Fold Change of SLC38A1 gene expression (PG-NNOP neural organoids; [6]): −1.15
- Log2 Fold Change of USP36 gene expression (PG-NNOP neural organoids; [6]): 0.99

Compound: COc1ccc(C2CNC(=O)C2)cc1OC1CCCC1 (stereo not drawn) [Rolipram]
- IC50 [3]: 800 nM
